Where two headings read alike, the source gives them in different places. Each block holds one compound with its values, some of them ahead of it.
How the values were obtained:
[1] = PK satellite group of the in-vivo UGE assay (plasma by LC-MS/MS); details: male, Sprague Dawley, rat plasma, oral gavage; for Tmax: read-out: Mean PK Parameters (n = 2) tmax
Method: Male Sprague Dawley rats (˜300 g) were singly housed in metabolic cages for urine collection. […] Rats (n=2 to 5/group) received vehicle or compound by oral gavage. Dosing solutions were 0.03 mg/mL, 0.3 mg/mL, 0.9 mg/mL, 3 mg/mL, 9 mg/mL and 18 mg/mL for the 0.1 mg/kg, 1 mg/kg, 3 mg/kg, 10 mg/kg, 30 mg/kg and 60 mg/kg doses respectively. Dosing volume was 1 mL/300 g of body weight for all doses. […] The vehicle was 20% v/v PEG400 and 24% v/v hydroxypropyl beta cyclodextrin; HPBCD. Following oral administration, urine was collected for 24 hours. Glucose concentration was measured in urine by UV absorbance spectrophotometry at 340 nm using a Roche Hitachi 917 spectrophotometer (Diamond Diagnostics, Holliston, Mass.). The total amount of glucose excreted in the urine was calculated as the product of urine concentration and urine volume using the formula below: urinary glucose excreted (mg)/200 g body weight=urinary glucose concentration (mg/dL)×urine volume (dL)×200/rat body weight (g). […] Blood (0.1 mL) was collected from the PK satellite group animals at 1, 2, 4, 7, 24 hours postdose to obtain plasma and analyzed by LC-MS/MS.

[2] = Pharmacokinetic testing in rats (IV or PO); type: in vivo; details: rat
Method: Examples 1A, 2A, 4A, 12A, and 14A were tested in rats to assess pharmacokinetic parameters including maximum concentration (Cmax), area under the plasma concentration time curve (AUC), clearance (CL), steady state volume of distribution (Vss), half life (t1/2), and bioavailability (F). Male Sprague Dawley rats (˜300 g) were used. Rats received compound by intravenous (IV) or oral gavage (PO) administration and the doses tested including vehicle to formulate dosing solutions are listed in Table 5.
Following IV or PO administration, 0.2 mL blood was sampled from the jugular vein at various timepoints (Table 5). Twenty microL aliquots of plasma samples and standards were subjected to protein precipitation with acetonitrile containing an internal standard. Samples were vortexed and centrifuged to obtain supernatant which was analyzed by LC-MS/MS. Analyst (Version 1.4.1) was used to measure peak areas and peak area ratios of analyte to internal standard were calculated. LC-MS/MS conditions are as follows: Mass Spectrometer+Source Type was Sciex API 4000−Turbo Spray; HPLC pump was Shimadzu; Autosampler was CTC PAL Autosampler; Injection volume was 3.0 to 10 microL; A gradient was used with mobile phase A: 10 mM ammonium acetate and 1% Isopropyl alcohol in water; B: Acetonitrile; Flowrate 0.300 mL per minute (Column 2.0×30 mm 5 microm LUNA C18 column (phenomenex)). Detection mode was negative.
A calibration curve was constructed from the peak area ratios of the standards to the internal standard by applying a weighted linear (1/x or 1/x2) regression. The dynamic range of the standard curve was 5.00 ng/mL to 5000 ng/mL.
Pharmacokinetic parameters were determined from individual animal data using non-compartmental analysis in Watson (version 7.2). Concentrations below the limit of quantitation (BLQ) were recorded as 0 ng/mL for use in calculations.
The following calculations were used: AUC(0−τ)=Determined using the linear trapezoidal method AUC(0−□)=AUC(0−τ) plus extrapolated area determined by dividing plasma concentration at τ by the slope of the terminal log-linear phase CL=Dose/AUC(0−∞) Vdss=CL×MRT Cmax=Recorded directly from plasma concentration time curve Tmax=Recorded directly from plasma concentration time curve t½=ln(0.5)/slope of the terminal log-linear phase F %=AUC(0−∞)PO per dose/AUC(0−∞)IV per dose C(0)=Extrapolated by linear regression from the apparent distribution phase following IV administration MRT=AUMC(AUC(0−∞)/AUC(0−∞)

[3] = male, Sprague Dawley, plasma, IV, 2 mg/kg
[4] = male, Sprague Dawley, plasma, PO, 2 mg/kg, Tween 80/0.5% MC
[5] = male, Sprague Dawley, plasma, PO, 5 mg/kg, 20% PEG/24% HBCD
[6] = male, Sprague Dawley, plasma, PO, 10 mg/kg, PEG200/0.5% MC

SMILES: CCOc1ccc(Cc2cc([C@]34OC[C@](CO)(O3)[C@@H](O)[C@H](O)[C@H]4O)ccc2Cl)cc1 [Example 4A, (1S,2S,3S,4R,5S)-5-[4-chloro-3-(4-ethoxy-benzyl)-phenyl]-1-hydroxymethyl-6,8-dioxa-bicyclo[3.2.1]octane-2,3,4-triol]
AUC(0-t) ([1]; 0.1 mg/kg): 188 ng·h/mL
Cmax ([1]; 0.1 mg/kg): 43.4 ng/mL
AUC(0-t) ([1]; 1 mg/kg): 2000 ng·h/mL
Cmax ([1]; 1 mg/kg): 372 ng/mL
Tmax ([1]; 1 mg/kg): 1 h
AUC(0-t) ([1]; 3 mg/kg): 7080 ng·h/mL
Cmax ([1]; 3 mg/kg): 1320 ng/mL
Tmax ([1]; 3 mg/kg): 1 h
AUC(0-t) ([1]; 10 mg/kg): 26400 ng·h/mL
Cmax ([1]; 10 mg/kg): 3100 ng/mL
Tmax ([1]; 10 mg/kg): 2.5 h
AUC(0-t) ([1]; 30 mg/kg): 10700 ng·h/mL
Cmax ([1]; 30 mg/kg): 10500 ng/mL
Tmax ([1]; 30 mg/kg): 1 h
AUC(0-t) ([1]; 60 mg/kg): 233000 ng·h/mL
Cmax ([1]; 60 mg/kg): 25300 ng/mL
Tmax ([1]; 60 mg/kg): 2 h
AUC(0-inf) [2, 3]: 8480 ng·h/mL
Vd ([2]; male, Sprague Dawley, plasma, IV, 2 mg/kg, read-out: Vss): 1.1 L/kg
AUC(0-inf) [2, 4]: 5650 ng·h/mL
Cmax [2, 4]: 772 ng/mL
half-life [2, 4]: 3.7 h
AUC(0-inf) [2, 5]: 16800 ng·h/mL
Cmax [2, 5]: 1190 ng/mL
CL ([2]; IV, 2 mg/kg): 4.04 mL/min/kg
t1/2 ([2]; IV, 2 mg/kg): 4.1 h
F ([2]; PO, 2 mg/kg, Tween 80/0.5% MC): 67%
F ([2]; PO, 5 mg/kg, 20% PEG/24% HBCD): 79%

AUC(0-t) ([1]; 10 mg/kg): 6630 ng·h/mL
Cmax ([1]; 10 mg/kg): 1260 ng/mL
Tmax ([1]; 10 mg/kg): 1 h
AUC(0-inf) [2, 3]: 947 ng·h/mL
AUC(0-inf) [2, 6]: 2680 ng·h/mL
Cmax [2, 6]: 1650 ng/mL
half-life [2, 6]: 2.82 h
CL ([2]; IV, 2 mg/kg): 37.1 mL/min/kg
Vss ([2]; IV, 2 mg/kg): 1.71 L/kg
t1/2 ([2]; IV, 2 mg/kg): 0.962 h
F ([2]; PO, 10 mg/kg, PEG200/0.5% MC): 56.5%
SMILES: COc1ccc(Cc2cc([C@]34OC[C@](CO)(O3)[C@@H](O)[C@H](O)[C@H]4O)ccc2C)cc1 [Example 1A, (1S,2S,3S,4R,5S)-1-hydroxymethyl-5-[3-(4-methoxy-benzyl)-4-methyl-phenyl]-6,8-dioxa-bicyclo[3.2.1]octane-2,3,4-triol]

— patent publication US8080580B2, “Dioxa-bicyclo[3.2.1]octane-2,3,4-triol derivatives” (Pfizer Inc., priority 2008, dated 2011)
